# In patent US12391660B2, “Heteroaromatic acetamide derivative, and preparation and use thereof” (Hangzhou Westan Pharmaceutical Technology Co., Ltd, priority 2019, dated 2025):
# Molecular target: T1, human TRPA1 (Homo sapiens (Human), UniProt O75762)
# Assay: FLIPR assay of inhibitory activity on human TRPA1 (calcium ion flux fluorescence)
# Assay type: cell-based
# Settings: HEK293 cells stably expressing human TRPA1
# Procedure: 1. FLIPR Assay of Inhibitory Activity on Human TRPA1
# A calcium ion flux fluorescence method (FLIPR assay) was adopted to measure the inhibitory activity of compounds on human TRPA1 channel. The literature reports of Lee and Chen et al. may be referred to for the method [Lee et al. Br J Pharmacol 2008, 153 (8): 1739-1749] [Chen et al. Pain 2011, 152(5):1165-72].
# A HEK293 recombinant cell strain stably expressing human TRPA1 (Creative Biogene, NY) was cultured in DMEM (Thermo Fisher Scientific, Shanghai) medium (containing 10% calf serum, 5 μg/ml Blasticidin and 400 ug/ml G418). The incubator was under a condition of 37° C. and air humidity with 5% CO2.
# TRPA1 cells were seeded in a 96-well analysis plate at a density of 75,000 cells per well (100 ul/well), and cultured overnight in an incubator at 37° C. and 5% CO2. On the second day, incubation was continued overnight under the same condition to induce the expression of TRPA1 after the culture medium in each well was poured out and a fresh supplement with the same culture medium containing 0.1 μg/ml Tetracycline was added. The further next day, the culture medium was pour out, a DMEM culture solution (also containing 2.5 mM Probenicid) containing 5 μM Fluo-4 AM (Molecular Probes) was added to each well, and incubation was conducted at 37° C. for 1 hour.
# The compound was dissolved in 100% DMSO to prepare a 30 mM stock solution which was stored at −20° C. On the day of use, the compound stock solution was thawed at room temperature. Each compound was subjected to 1:5 serial dilution using DMSO medium at a starting concentration of 30 μM with 9 concentration points on a 96-well plate. Each compound was diluted in duplicate for testing. Ruthenium Red was used as the positive control compound and the same dilution was carried out at a starting concentration of 3 μM.
# The cell analysis plate was placed in an FLIPR instrument […], and the compound in the compound plate was added to the corresponding hole on the cell analysis plate (First addition) via an automatic program, and the calcium ion fluorescence signal was recorded to determine whether the compound had agonistic activity. After 10 minutes, CaCl2 (Second addition) was added a final concentration of 3 mM to each well to stimulate intracellular calcium flux signals. Ca^++-dependent fluorescence signal was monitored continuously at 538 nm wavelength to analyze the inhibitory activity of the compounds.
# The data was collected and analyzed using a FLIPR program. The fluorescence peak value was used to evaluate the inhibitory (or agonistic) activity of the compounds at each concentration. EXCEL and PRISM programs were used to calculate the IC50 value of the compounds.
# T1 sequence (O75762 whole entry): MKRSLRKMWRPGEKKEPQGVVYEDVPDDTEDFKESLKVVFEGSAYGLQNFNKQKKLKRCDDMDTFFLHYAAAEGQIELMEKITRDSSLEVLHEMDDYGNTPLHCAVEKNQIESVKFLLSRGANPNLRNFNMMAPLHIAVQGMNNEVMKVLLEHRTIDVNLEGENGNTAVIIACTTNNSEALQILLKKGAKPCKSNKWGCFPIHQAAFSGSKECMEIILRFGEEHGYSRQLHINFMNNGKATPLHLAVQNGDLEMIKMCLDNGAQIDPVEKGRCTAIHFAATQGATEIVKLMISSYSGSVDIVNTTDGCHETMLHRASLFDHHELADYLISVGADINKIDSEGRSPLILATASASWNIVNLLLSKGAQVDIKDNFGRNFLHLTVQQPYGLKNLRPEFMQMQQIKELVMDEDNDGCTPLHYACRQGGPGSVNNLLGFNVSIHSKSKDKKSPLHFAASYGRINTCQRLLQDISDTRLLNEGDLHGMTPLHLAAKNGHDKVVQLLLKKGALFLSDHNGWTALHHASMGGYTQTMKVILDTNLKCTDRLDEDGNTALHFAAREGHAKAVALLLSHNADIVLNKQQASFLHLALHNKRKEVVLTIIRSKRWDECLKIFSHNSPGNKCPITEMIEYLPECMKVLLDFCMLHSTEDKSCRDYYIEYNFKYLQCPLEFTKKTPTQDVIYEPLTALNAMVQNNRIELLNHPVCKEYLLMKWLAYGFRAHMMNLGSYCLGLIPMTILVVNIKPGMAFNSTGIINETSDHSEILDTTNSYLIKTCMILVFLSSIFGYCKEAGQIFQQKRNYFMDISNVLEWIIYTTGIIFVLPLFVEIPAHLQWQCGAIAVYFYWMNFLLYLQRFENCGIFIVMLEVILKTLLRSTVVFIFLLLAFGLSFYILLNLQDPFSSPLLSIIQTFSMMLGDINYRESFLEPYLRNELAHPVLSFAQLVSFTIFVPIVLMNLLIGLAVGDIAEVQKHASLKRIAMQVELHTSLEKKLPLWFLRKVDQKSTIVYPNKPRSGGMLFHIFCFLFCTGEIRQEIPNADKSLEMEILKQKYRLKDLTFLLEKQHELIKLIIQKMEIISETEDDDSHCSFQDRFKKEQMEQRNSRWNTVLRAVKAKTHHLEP
row,SMILES,IC50 [nM]
1,"N#Cc1ccc(NC2(C(=O)N3CCN(c4cccc(C(F)(F)F)n4)CC3)CCCC2)cc1 [Compound 11, 4-((1-(4-(6-(trifluoromethyl)pyridin-2-yl)piperazine-1-carbonyl)cyclopentyl)amino)benz onitrile]",19
2,"N#Cc1ccc(OC2(C(=O)N3CCN(c4nccc(C(F)(F)F)n4)CC3)CCCC2)cc1 [Compound 50, 4-((1-(4-(4-(trifluoromethyl)pyrimidin-2-yl)piperazine-1-carbonyl)cyclopentyl)oxy)benz onitrile]",28
3,"N#Cc1ccc(OC2(C(=O)N3CCN(c4cccc(C(F)(F)F)n4)CC3)CCC2)cc1 [Compound 58, 4-((1-(4-(6-(trifluoromethyl)pyridin-2-yl)piperazine-1-carbonyl)cyclobutyl)oxy)benzo nitrile]",620
4,"N#Cc1ccc(OC2(C(=O)N3CCN(c4ccc(C(F)(F)F)nn4)CC3)CCCC2)cc1Cl [Compound 60, 2-chloro-4-((1-(4-(6-(trifluoromethyl)pyridazin-3-yl)piperazine-1-carbonyl)cyclopentyl)oxy)benzonitrile]",847
5,N#Cc1ccc(OC(C(=O)N2CCN(c3ccc(C(F)(F)F)nn3)CC2)c2ccccc2)cc1 (stereo not drawn) [Compound 63],560
6,"CC(C)(C)N1CCN(C(=O)C2(Oc3ccc(C(F)(F)F)cc3)CCCC2)CC1 [Compound 64, 4-((1-(4-(tert-butyl)piperazine-1-carbonyl)cyclopentyl)oxy) trifluoromethylbenzene]",552
7,"Cn1cc(C#N)cc1OC1(C(=O)N2CCC(C(C)(C)C)CC2)CCCC1 [Compound 65, 5-((1-(4-(tert-butyl)piperidine-1-carbonyl)cyclopentyl)oxy)-1-methyl-1H-pyrrole-3-car bonitrile]",1080
8,"CC(C)(C)N1CCN(C(=O)C2(Sc3ccc(C#N)cc3)CCCC2)CC1 [Compound 66, 4-((1-(4-(tert-butyl)piperazine-1-carbonyl)cyclopentyl)sul-fanyl)benzonitrile]",105
9,"Cn1ccc2cc(SC3(C(=O)N4CCC(C(C)(C)C)CC4)CCCC3)ccc21 [Compound 67, 5-((1-(4-(tert-butyl)piperidine-1-carbonyl)cyclopentyl)sulfanyl)-1-methyl-1H-indole]",3780
10,"N#Cc1ccc2c(c1)CC(C(=O)N1CCN(c3cccc(C(F)(F)F)n3)CC1)N2 (stereo not drawn) [Compound 68, 2-(4-(6-(trifluoromethyl)pyridin-2-yl)piperazine-1-carbonyl)-5-cyanoindoline]",112
11,"N#Cc1ccc2c(c1)CC(C(=O)N1CCN(c3nccc(C(F)(F)F)n3)CC1)N2 (stereo not drawn) [Compound 69, 2-(4-(4-(trifluoromethyl)pyrimidin-2-yl)piperazine-1-carbonyl)-5-cyanoindoline]",386
12,"N#Cc1ccc2c(c1)CC(C(=O)N1CCN(c3cccc(C(F)(F)F)c3)CC1)N2 (stereo not drawn) [Compound 70, 2-(4-(3-(trifluoromethyl)phenyl)piperazine-1-carbonyl)-5-cyanoindoline]",92
13,"N#Cc1ccc2[nH]c(C(=O)N3CCN(c4cccc(C(F)(F)F)n4)CC3)cc2c1 [Compound 71, 2-(4-(6-(trifluoromethyl)pyridin-2-yl)piperazine-1-carbonyl)-1H-5-cyanoindole]",866
14,"N#Cc1ccc2[nH]c(C(=O)N3CCN(c4ccc(C(F)(F)F)cn4)CC3)cc2c1 [Compound 72, 2-(4-(5-(trifluoromethyl)pyridin-2-yl)piperazine-1-carbonyl)-1H-5-cyanoindole]",971
15,"N#Cc1ccc2c(c1)CC(C(=O)N1CCN(c3cccc(C(F)(F)F)n3)CC1)O2 (stereo not drawn) [Compound 73, 2-(4-(6-(trifluoromethyl)pyridin-2-yl)piperazine-1-carbonyl)-2,3-2H-5-cyanobenzofuran]",261
16,"O=C(C1Cc2cc(Cl)ccc2O1)N1CCN(c2cccc(C(F)(F)F)n2)CC1 (stereo not drawn) [Compound 74, 2-(4-(6-(trifluoromethyl)pyridin-2-yl)piperazine-1-carbonyl)-2,3-2H-5-chlorobenzofuran]",116
17,Cc1cccc(N2CCN(C(=O)C3Cc4cc(C#N)ccc4O3)CC2)n1 (stereo not drawn) [Compound 75],285
18,"CC(C)(C)N1CCN(C(=O)C2Cc3cc(C#N)ccc3N2)CC1 (stereo not drawn) [Compound 77, 2-(4-(tert-butyl)piperazine-1-carbonyl)-5-cyanoindoline]",91
19,"CC(C)(C)C1CCN(C(=O)C2Cc3cc(C#N)ccc3N2)CC1 (stereo not drawn) [Compound 78, 2-(4-(tert-butyl)piperidine-1-carbonyl)-5-cyanoindoline]",53
20,"CC(C)(C)C1CCN(C(=O)C2Cc3cc(C#N)ccc3O2)CC1 (stereo not drawn) [Compound 79, 2-(4-(tert-butyl)piperidine-1-carbonyl)-2,3-2H-5-cyanoben-zofuran]",82
21,"CC(C)(C)N1CCN(C(=O)C2Cc3cc(C#N)ccc3O2)CC1 (stereo not drawn) [Compound 80, 2-(4-(tert-butyl)piperazine-1-carbonyl)-2,3-2H-5-cyano-benzofuran]",68

# Molecular target: T1, human TRPA1
# Assay: Inhibitory activity on human TRPA1 by conventional patch clamp assay
# Assay type: cell-based
# Settings: HEK293 human TRPA1, 100 μM cinnamaldehyde
# Source text: 2. Inhibitory Activity on Human TRPA1 by Conventional Patch Clamp Assay
# In order to compare the influences of different measuring methods on the inhibitory activity of compounds, a conventional patch clamp method was used to further measure the inhibitory activity of compounds 1, 11, 31, 50, and 78 on TRPA1. The principle and procedures of the conventional patch clamp assay could be found in the literature report of Chen et al [Chen et al. Pain 2011, 152(5):1165-72].
# Evaluation of TRPA1 inhibitory activity of compounds was conducted using the HEK293 recombinant cell strain (Creative Biogene, NY) stably expressing human TRPA1. Cells were cultured in a DMEM/F12 (3:1, Thermo Fisher Scientific) medium (containing 5% calf serum, 2 mM glutamine and 20 mM HEPES) in an incubator at 37° C. and air humidity containing 5% CO2.
# During the experiment, the adherent cells were placed in a recording room under the inverted microscope. All experiments were performed at room temperature. Each cell itself was used as a control thereof.
# Test compounds at a final concentration were all prepared on the testing day and then dissolved in the extracellular fluid. The extracellular fluid was (mM): NaCl, 137; KCl, 4; CaCl2, 1.8; MgCl2, 1; HEPES, 10; glucose 10; pH 7.4 (NaOH titration). All the solutions of the test compounds and control compounds contained 0.3% DMSO.
# The compounds were all perfused with a perfusion system by virtue of their own gravity. At least two cells were tested for each concentration of the compound. After the current became stable, the variation in magnitude of the current before and after the compound was used to calculate the blocking effect of the compound. 100 μM cinnamaldehyde was used as the positive control.
# The cells were transferred to the perfusion tank and perfused with extracellular fluid. The intracellular fluid was: 130 mM K-aspartate; 5 mM MgCl2; 5 mM EGTA; 10 mM
# HEPES; pH 7.2 (KOH titration). The intracellular fluid was stored in a small amount in a −80 degree refrigerator in batches, and thawed on the day of the experiment. The electrode was pulled with PC-10 (Narishige, Japan). Whole-cell patch clamp recording was adopted and noise was filtered at one-fifth of the sampling frequency.
# The cells were clamped at 20 mV, and then depolarized to 80 mV with a square wave of 500 milliseconds to obtain the TRPA1 current (see FIG. 1).
# This procedure was repeated every 3 seconds. Cells were patched in a normal extracellular fluid, current A was obtained via voltage procedure testing, and then perfusion was conducted with an extracellular fluid added with 100 μM cinnamaldehyde to activate TRPA1 current to obtain current B. After the current stabilized, elution was conducted with normal extracellular fluid and perfusion was conducted with an extracellular fluid added with 100 μM cinnamaldehyde and a compound at various concentrations to obtain current C. Finally, blocking rate of the compound was obtained according to […], see FIG. 2.
# Data collection and analysis was conducted using pCLAMP 10 (Molecular Devices, Union City, CA). Current stabilization meant that the variation in the current with time was within a limited range. The magnitude of the current after stabilization was used to reflect the effect of the compound in this process.
row,SMILES,IC50 [nM]
1,"N#Cc1ccc(NC2(C(=O)N3CCN(c4cccc(C(F)(F)F)n4)CC3)CCCC2)cc1 [Compound 11, 4-((1-(4-(6-(trifluoromethyl)pyridin-2-yl)piperazine-1-carbonyl)cyclopentyl)amino)benz onitrile]",35
2,"N#Cc1ccc(OC2(C(=O)N3CCN(c4nccc(C(F)(F)F)n4)CC3)CCCC2)cc1 [Compound 50, 4-((1-(4-(4-(trifluoromethyl)pyrimidin-2-yl)piperazine-1-carbonyl)cyclopentyl)oxy)benz onitrile]",65
3,"CC(C)(C)C1CCN(C(=O)C2Cc3cc(C#N)ccc3N2)CC1 (stereo not drawn) [Compound 78, 2-(4-(tert-butyl)piperidine-1-carbonyl)-5-cyanoindoline]",83
